In PubChem BioAssay AID2060511 (Molecular Pharmacology Branch, DTP, NCI, 2025):

System: 422866-222-R5-J1-PDC spheroids with HUVEC/MSC, viability
Assay: Anticancer human tumor 422866-222-R5-J1-PDC patient-derived pancreatic adenocarcinoma cell line growth inhibition [GQUAD]
Conditions: for IC50: curve of first compound; for viability, T/C: stronger effect = lower value
How it was run: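 Viability of tumor cells grown as complex spheroids with endothelial and stromal cells, exposed to drug combinations. Top concentration at or near clinical Cmax (else 10 microM), diluted in half-log increments.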

[1] = second compound 0.0316 µM, first compound 0.0316 µM
[2] = second compound 0.0316 µM, first compound 0.1 µM
[3] = second compound 0.0316 µM, first compound 0.316 µM
[4] = second compound 0.0316 µM, first compound 1 µM
[5] = second compound 0.0316 µM, first compound 3.16 µM
[6] = second compound 0.0316 µM, first compound 10 µM
[7] = second compound 0.1 µM, first compound 0.0316 µM
[8] = second compound 0.1 µM, first compound 0.1 µM
[9] = second compound 0.1 µM, first compound 0.316 µM
[10] = second compound 0.1 µM, first compound 1 µM
[11] = second compound 0.1 µM, first compound 3.16 µM
[12] = second compound 0.1 µM, first compound 10 µM
[13] = second compound 0.316 µM, first compound 0.0316 µM
[14] = second compound 0.316 µM, first compound 0.1 µM
[15] = second compound 0.316 µM, first compound 0.316 µM
[16] = second compound 0.316 µM, first compound 1 µM
[17] = second compound 0.316 µM, first compound 3.16 µM
[18] = second compound 0.316 µM, first compound 10 µM
[19] = second compound 1 µM, first compound 0.0316 µM
[20] = second compound 1 µM, first compound 0.1 µM
[21] = second compound 1 µM, first compound 0.316 µM
[22] = second compound 1 µM, first compound 1 µM
[23] = second compound 1 µM, first compound 3.16 µM
[24] = second compound 1 µM, first compound 10 µM
[25] = second compound 3.16 µM, first compound 0.0316 µM
[26] = second compound 3.16 µM, first compound 0.1 µM
[27] = second compound 3.16 µM, first compound 0.316 µM
[28] = second compound 3.16 µM, first compound 1 µM
[29] = second compound 3.16 µM, first compound 3.16 µM
[30] = second compound 3.16 µM, first compound 10 µM
[31] = second compound 10 µM, first compound 0.0316 µM
[32] = second compound 10 µM, first compound 0.1 µM
[33] = second compound 10 µM, first compound 0.316 µM
[34] = second compound 10 µM, first compound 1 µM
[35] = second compound 10 µM, first compound 3.16 µM
[36] = second compound 10 µM, first compound 10 µM
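Also: spheroids exposed to compounds for seven days before reading.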
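For viability, T/C in this document: percent viability relative to DMSO vehicle control taken as 100%.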

Cc1cccc(N(C)C(=O)C2C(O)CCN2c2nc(C)cc(C(F)(F)F)c2C#N)c1 (stereo unspecified) + Cc1cnc(CNC(=O)c2c(=O)c3ccc(N4CCCN(C)CC4)nc3n3c2sc2ccccc23)cn1
IC50 (second compound 0.0316 µM): > 10 µM | IC50 (second compound 0.1 µM): > 10 µM | IC50 (second compound 0.316 µM): > 10 µM | IC50 (second compound 1 µM): > 10 µM | IC50 (second compound 3.16 µM): > 10 µM | IC50 (second compound 10 µM): > 10 µM | viability, T/C [1]: 95% | viability, T/C [2]: 82.2% | viability, T/C [3]: 83.9% | viability, T/C [4]: 92.8% | viability, T/C [5]: 90.5% | viability, T/C [6]: 88.7% | viability, T/C [7]: 95.9% | viability, T/C [8]: 86.3% | viability, T/C [9]: 86.8% | viability, T/C [10]: 83.7% | viability, T/C [11]: 102% | viability, T/C [12]: 90.9% | viability, T/C [13]: 85.8% | viability, T/C [14]: 90.5% | viability, T/C [15]: 98.9% | viability, T/C [16]: 83.7% | viability, T/C [17]: 85.3% | viability, T/C [18]: 85.5% | viability, T/C [19]: 82% | viability, T/C [20]: 85.8% | viability, T/C [21]: 86.1% | viability, T/C [22]: 79.7% | viability, T/C [23]: 94.1% | viability, T/C [24]: 91.6% | viability, T/C [25]: 73.7% | viability, T/C [26]: 80% | viability, T/C [27]: 86.1% | viability, T/C [28]: 79.7% | viability, T/C [29]: 96.5% | viability, T/C [30]: 78.8% | viability, T/C [31]: 75.3% | viability, T/C [32]: 75.6% | viability, T/C [33]: 75% | viability, T/C [34]: 86.5% | viability, T/C [35]: 89% | viability, T/C [36]: 77.7%

Cn1ncnc1[C@H]1c2n[nH]c(=O)c3cc(F)cc(c23)N[C@@H]1c1ccc(F)cc1 + Cc1cnc(CNC(=O)c2c(=O)c3ccc(N4CCCN(C)CC4)nc3n3c2sc2ccccc23)cn1
IC50 (second compound 0.0316 µM): > 0.316 µM | IC50 (second compound 0.1 µM): > 0.316 µM | IC50 (second compound 0.316 µM): > 0.316 µM | IC50 (second compound 1 µM): > 0.316 µM | IC50 (second compound 3.16 µM): > 0.316 µM | IC50 (second compound 10 µM): > 0.316 µM | viability, T/C (second compound 0.0316 µM, first compound 0.000999 µM): 94.9% | viability, T/C (second compound 0.0316 µM, first compound 0.00316 µM): 85% | viability, T/C (second compound 0.0316 µM, first compound 0.00999 µM): 93.8% | viability, T/C [1]: 81.2% | viability, T/C (second compound 0.0316 µM, first compound 0.0999 µM): 70.9% | viability, T/C [3]: 69.4% | viability, T/C (second compound 0.1 µM, first compound 0.000999 µM): 89.1% | viability, T/C (second compound 0.1 µM, first compound 0.00316 µM): 91.2% | viability, T/C (second compound 0.1 µM, first compound 0.00999 µM): 81.1% | viability, T/C [7]: 79.3% | viability, T/C (second compound 0.1 µM, first compound 0.0999 µM): 78.2% | viability, T/C [9]: 71.8% | viability, T/C (second compound 0.316 µM, first compound 0.000999 µM): 91.6% | viability, T/C (second compound 0.316 µM, first compound 0.00316 µM): 78.6% | viability, T/C (second compound 0.316 µM, first compound 0.00999 µM): 87.4% | viability, T/C [13]: 84% | viability, T/C (second compound 0.316 µM, first compound 0.0999 µM): 73.1% | viability, T/C [15]: 83.9% | viability, T/C (second compound 1 µM, first compound 0.000999 µM): 75.8% | viability, T/C (second compound 1 µM, first compound 0.00316 µM): 77.4% | viability, T/C (second compound 1 µM, first compound 0.00999 µM): 80.7% | viability, T/C [19]: 80.5% | viability, T/C (second compound 1 µM, first compound 0.0999 µM): 88.1% | viability, T/C [21]: 74.9% | viability, T/C (second compound 3.16 µM, first compound 0.000999 µM): 86.3% | viability, T/C (second compound 3.16 µM, first compound 0.00316 µM): 71.5% | viability, T/C (second compound 3.16 µM, first compound 0.00999 µM): 82% | viability, T/C [25]: 70.7% | viability, T/C (second compound 3.16 µM, first compound 0.0999 µM): 78.4% | viability, T/C [27]: 71% | viability, T/C (second compound 10 µM, first compound 0.000999 µM): 75.2% | viability, T/C (second compound 10 µM, first compound 0.00316 µM): 78.2% | viability, T/C (second compound 10 µM, first compound 0.00999 µM): 77.3% | viability, T/C [31]: 77.9% | viability, T/C (second compound 10 µM, first compound 0.0999 µM): 84% | viability, T/C [33]: 66.9%

O=C(c1cc(Cc2n[nH]c(=O)c3ccccc23)ccc1F)N1CCN(C(=O)C2CC2)CC1 + Cc1cnc(CNC(=O)c2c(=O)c3ccc(N4CCCN(C)CC4)nc3n3c2sc2ccccc23)cn1
IC50 (second compound 0.0316 µM): > 10 µM | IC50 (second compound 0.1 µM): > 10 µM | IC50 (second compound 0.316 µM): > 10 µM | IC50 (second compound 1 µM): > 10 µM | IC50 (second compound 3.16 µM): > 10 µM | IC50 (second compound 10 µM): > 10 µM | viability, T/C [1]: 108% | viability, T/C [2]: 89% | viability, T/C [3]: 84.8% | viability, T/C [4]: 83.4% | viability, T/C [5]: 80.5% | viability, T/C [6]: 65.2% | viability, T/C [7]: 91.9% | viability, T/C [8]: 84.4% | viability, T/C [9]: 80.5% | viability, T/C [10]: 83.7% | viability, T/C [11]: 80.2% | viability, T/C [12]: 77.6% | viability, T/C [13]: 74% | viability, T/C [14]: 77.9% | viability, T/C [15]: 78.8% | viability, T/C [16]: 84% | viability, T/C [17]: 85.2% | viability, T/C [18]: 77.1% | viability, T/C [19]: 76.2% | viability, T/C [20]: 76.6% | viability, T/C [21]: 84% | viability, T/C [22]: 76.5% | viability, T/C [23]: 80.3% | viability, T/C [24]: 70.4% | viability, T/C [25]: 83.3% | viability, T/C [26]: 73.7% | viability, T/C [27]: 83.2% | viability, T/C [28]: 91.2% | viability, T/C [29]: 83.6% | viability, T/C [30]: 76.5% | viability, T/C [31]: 70% | viability, T/C [32]: 79.4% | viability, T/C [33]: 77.8% | viability, T/C [34]: 72.7% | viability, T/C [35]: 89.5% | viability, T/C [36]: 69.2%
